pIC50: −log10 of the molar value.
How the values were obtained:
recombinant human MAP4K4 = target: T1, recombinant human MAP4K4 (Homo sapiens, UniProt O95819); assay: In vitro MAP4K4 kinase activity assay (HTRF Transcreener ADP); format: biochemical; settings: MAP4K4; HTRF Transcreener ADP assay; read-out: pIC50 (converted)
T1 construct: Human MAP4K4 kinase domain (aa 1-328); purchased Invitrogen PV3687
Procedure: MAP4K4 kinase activity was monitored using the CisBio HTRF Transcreener ADP assay, a competitive immunoassay with a reproducible Z’ > 0.6. In the detection step, endogenous ADP and d2-labeled ADP compete for binding an anti-ADP monoclonal antibody labeled with Eu^3+ cryptate. […] Assays were run in Greiner low volume plates with a final reaction volume of 10 μl. Percent inhibition was calculated from 100% activity of MAP4K4 (DMSO only) and 0% activity (no enzyme added). Data were either reported as % inhibition at a single dose or as pIC50 values derived from dose response curves (pIC50 = -log[IC50]).

vCor.4U hiPSC-CMs = assay: Calcium transients (FLIPR Tetra, EarlyTox Cardiotoxicity dye); format: cell-based, human; settings: Homo sapiens; calcium cycling; vCor.4U; 24 h; read-out: half-maximal loss of peak area and peak height
Procedure: Calcium transients in hiPSC-CMs were assessed using FLIPR Tetra instrumentation and Early Tox Cardiotoxicity kits (Molecular Devices). vCor.4U cells were subjected to graded concentrations of menadione and the MAP4K4 inhibitors as described for the viability assays. Compound concentrations and time course are denoted in the figure and figure legend. Vehicle controls were used throughout. Cells were incubated for 2-3 hr at 37°C in 5% CO2, using 3 μL well^-1 of EarlyTox Cardiotoxicity Kit concentrate as the fluorescent calcium indicator dye. Plates were then removed from the incubator and allowed to reach room temperature. Intracellular calcium oscillations were monitored using a FLIPR Tetra system with excitation LED bank 470-495 nm and emission filter set 515-575 nm (Molecular Devices). Fluorescence intensity signals were acquired for 600 reads at 1.2 ms intervals. Beat frequency, median peak height, median peak width and total peak area were calculated and compared with the baseline control and with menadione alone. Protection of calcium cycling by DMX-4804 was confirmed in 3 independent experiments with overlapping conditions, and results are shown for a full dose-response study, analyzing 4 wells for each point.

vCor.4U cells = assay: Mitochondrial function (Seahorse XFe24, OCR and ECAR); format: cell-based, human; settings: menadione 15 μM; 2 h
Procedure: Mitochondrial function in hiPSC-CMs was determined using a Seahorse XFe24 Analyzer. vCor.4U cells (60,000 well^-1) were transferred to 0.1% gelatin-coated XF24 plates and maintained for 5 d, as described above. On day 6, DMX-5804 was added 45 min prior to challenge with menadione for 2 h. The medium was replaced 1 hr before the assay, using bicarbonate-free Seahorse assay medium (8.3 g L^-1 DMEM Base (Sigma-Aldrich), 10 mM glucose, 2 mM L-alanyl-L-glutamine dipeptide (Glutamax-1, GIBCO), 1 mM sodium pyruvate (GIBCO), pH 7.4). Cells were maintained at 37°C without supplemental CO2 starting 1 hr before the assay (IL10 incubator, VWR). For each state measured, three assay cycles were performed (4 min mixing, 2 min wait, and 2 min measurement periods, with readings every 15 s). The basal oxygen consumption rate (OCR) and extracellular acidification rate (ECAR) were determined, followed by sequential injection of 1 μM oligomycin A (Abcam) to inhibit ATP synthase, 0.5 μM […] (FCCP; Abcam) to uncouple oxidative phosphorylation, and 1 μM antimycin A/rotenone (Sigma, Abcam) to inhibit mitochondrial complex III and I. For each condition, 12 wells were tested, comprising 4 independent experiments.

vCor.4U cardiomyocytes = assay: CellTiter-Glo viability after oxidative stress (H2O2 or menadione); format: cell-based, human; settings: vCor.4U; 400 μM H2O2 1 h after compound; 10 μM
Procedure: vCor.4U cardiomyocytes were cultured, except where noted, on white (viability) or black (FLIPR) clear-bottom 384-well plates, treated for 1 hr with […] fibronectin (Sigma-Aldrich). To minimize batch to batch variation, thawed cells first were transferred from cryo-vials into sterile 250 mL flasks containing pre-warmed vCor.4U maintenance medium, for 3-5 d. The cells were then plated at 1000 well^-1 for viability assays or 5000 cells well^-1 for FLIPR experiments, all in 40 μl well^-1 of the maintenance medium. Cells were cultured in Axiogenesis complete medium followed by incomplete medium, were subjected to oxidative stress ± test compounds on day 3, and were assayed on day 4 (Figures 4D and 4E). Alternatively, complete medium was replaced on day 2 of culture with 40 μl of DMEM high Glucose (no FCS or pyruvate), followed by removal and replacement of 20 μl every 2 d for 10 d (Figures 4A–4C).
H2O2, menadione (Sigma-Aldrich), doxorubicin (Calbiochem), and C2-ceramide (N-acetyl-D-sphingosine) were used at the indicated concentrations. MAP4K4 inhibitors were serially diluted in DMSO, transferred to an intermediate plate using assay medium as a diluting agent, and added at a final concentration of 0.1% DMSO. MAP4K4 inhibitors were added to cultured cardiomyocytes 1 hr before the cell death inducers, except where noted, and remained present for the duration of the experiment.
For cell-based dose-response experiments, MAP4K4 inhibitors were prepared in 96-well polypropylene plates as serial dilutions in DMSO of 10 mM stock solutions. To a sterile 96-well intermediate plate, 1 μl of each well was added to 99 μl of medium, the samples were mixed, and 5 μl well^-1 from the intermediate plate were transferred to the cultured cells (final concentration, 0.1% DMSO; final top concentration of inhibitor, 10 μM). Assay plates were gently centrifuged then incubated for 1 hr at 37°C. The death triggers menadione, H2O2 and doxorubicin were prepared fresh on the day of treatment at 10x the final concentrations and 5 μl well^-1 were added as appropriate. Assay plates were gently centrifuged and then incubated at 37°C for the duration of treatment.
Assay plates were removed from the incubator, allowed to reach room temperature, inoculated with 20 μl well^-1 CTG reagent (Promega), and gently agitated for 30 min. Prior to adding CTG, 2 μl well^-1 of the culture medium was removed and placed into a white 384-well low volume plate for measurement of cardiac troponin release by AlphaLISA (below). Luminescence due to ATP, proportional to cell number, was captured on a PHERAstar Plus microplate reader (BMG Labtech). Normalized values were plotted against the log concentration of death signal or inhibitor, and a 4-parameter fit was used to identify IC50 and EC50, respectively.

T1 sequence (O95819 1-328): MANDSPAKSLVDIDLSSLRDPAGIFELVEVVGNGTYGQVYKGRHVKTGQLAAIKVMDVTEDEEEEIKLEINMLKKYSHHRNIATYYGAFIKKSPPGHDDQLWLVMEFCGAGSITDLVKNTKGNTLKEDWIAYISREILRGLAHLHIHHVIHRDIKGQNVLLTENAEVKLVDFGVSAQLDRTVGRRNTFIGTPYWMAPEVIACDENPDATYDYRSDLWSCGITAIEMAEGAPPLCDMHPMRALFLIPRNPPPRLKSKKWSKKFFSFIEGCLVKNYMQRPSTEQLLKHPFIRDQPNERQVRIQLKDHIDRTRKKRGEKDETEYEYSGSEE

`O=c1[nH]cnc2[nH]cc(-c3ccccc3)c12` [DMX-4850] showed an IC50 (recombinant human MAP4K4) of 0.794 µM.
With `O=c1[nH]cnc2c1ccn2-c1ccccc1` [DMX-4815] the IC50 (recombinant human MAP4K4) was 7.94 µM.
In the case of `CC1=CC(=O)c2ccccc2C1=O` [menadione], the pIC50 (vCor.4U hiPSC-CMs) was 4.80 and the “Maximum oxidative capacity, of control levels” value (vCor.4U cells) was 15%.
`COCCc1ccc(OCC(O)CNC(C)C)cc1` (centres unmarked) [metoprolol] was tested, and the “human cardiomyocyte survival (rescue of viability)” value (vCor.4U cardiomyocytes) was “promoted”.
